Earlier results, collected in patent US20170258967A1, “COMPOSITIONS AND METHODS FOR DELIVERING AN AGENT TO A WOUND” (UNIVERSITY OF MEMPHIS RESEARCH FOUNDATION, priority 2014, published 2017).

Test system: S. aureus

In the case of `CCCCCCC/C=C\C(=O)O` [Cis-2-decenoic acid, Cis-2-Decenoic Acid], the “effect on S. aureus growth and biofilm formation” value is listed as “inhibit S. aureus growth and biofilm formation”.
